Results: US20090048295A1, “SUBSTITUTED 5,6,7,8-TETRAHYDROQUINOLINE DERIVATIVES, COMPOSITIONS, AND METHODS OF USE THEREOF” (priority 2007, published 2009)
Values joined by “and” are separate entries in the source; they are usually repeats but may differ in a detail not shown here. Equal values may be shown once.

How the values were obtained:
C5a receptor [1] = target: T1, C5a receptor (Homo sapiens, UniProt P21730); experiment: [125I]-C5a Radioligand Binding Assay (competition binding, differentiated U937 cells); conditions: for inhibition at 1 µM: read-out: [125I]-C5a Binding % Inhibition 1 μM, test compound 1 μM; for inhibition at 1 µM / inhibition at 10 µM / [125I]-C5a Binding % Inhibition 1 μM / [125I]-C5a Binding % Inhibition 10 μM: [125I]-C5a 0.05 nM, U937 cells, multiple values = duplicate experiments; for inhibition at 10 µM: read-out: [125I]-C5a Binding % Inhibition 10 μM, test compound 10 μM; for [125I]-C5a Binding % Inhibition 1 μM: test compound 1 μM; for [125I]-C5a Binding % Inhibition 10 μM: test compound 10 μM;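 for all read-outs here: cells preincubated with compound 30 min at room temperature, then 60 min at 4 °C with radioligand, bound counts read by scintillation, nonspecific binding defined with 100 nM C5a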
T1 sequence (P21730 1-350): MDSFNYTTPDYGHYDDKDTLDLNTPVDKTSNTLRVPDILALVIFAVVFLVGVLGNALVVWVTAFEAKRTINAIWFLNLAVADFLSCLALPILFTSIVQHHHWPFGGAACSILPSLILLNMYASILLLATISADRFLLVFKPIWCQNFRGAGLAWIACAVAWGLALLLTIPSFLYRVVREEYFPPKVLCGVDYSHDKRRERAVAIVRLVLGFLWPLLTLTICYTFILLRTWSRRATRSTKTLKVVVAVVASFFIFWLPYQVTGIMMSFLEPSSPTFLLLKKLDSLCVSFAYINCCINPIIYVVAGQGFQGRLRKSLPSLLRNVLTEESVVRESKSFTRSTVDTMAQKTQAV
Procedure: Competition binding assays for C5a receptors were performed by incubation of differentiated U937 cells (200,000 cells/well), test compound (1% DMSO) and [^125I]-C5a (Bolton & Hunter labeled, Perkin Elmer, specific activity=2200 Ci/mmol, 0.05 nM final) in binding buffer consisting of 50 mM HEPES, 5 mM MgCl2, 1 mM CaCl2, 0.5% protease-free BSA, 0.02% NaN3, pH 7.4. 100× solutions of test compounds were prepared in DMSO and further diluted in binding buffer. Non-specific binding was defined in wells containing 100 nM recombinant C5a. Cells and compound were pre-incubated for 30 min at RT. After addition of the radioligand, further incubation for 60 min occurred at 4° C. Cells were harvested on GF/B filters—presoaked in 0.5% polyethylenimine, followed by washing with binding buffer containing 500 mM NaCl, pH 7.4. Filter bound radioactivity was determined by liquid scintillation counting. IC50 and Ki values were calculated using non-linear regression in Graphpad Prism. Ki is calculated using the equation of Cheng and Prusoff (Biochem. Pharmacol. 1973, 22: 3099-3108)

C5a receptor [2] = target: T1, C5a receptor; experiment: Calcium Mobilization Assay (C5a-induced Ca2+ mobilization, FLIPR, differentiated U937 cells); format: cell-based; set-up: endogenous in cells; host or cells: U937 cells differentiated with dibutyryl cAMP; conditions: […] recombinant human C5a, 20 min pre-incubation, multiple values = duplicate experiments, read-out: C5a Induced Ca Mobil. Average IC50
Procedure: U937 cells (human monocytic cell line) were cultured in RPMI-1640 medium supplemented with 10% fetal bovine serum, 10 mM HEPES, 0.11 g/L pyruvate, 0.29 g/L L-glutamine, 100 IU/mL penicillin G and […] streptomycin. Dibutyryl cAMP (1 mM) was added to induce differentiation 2 or 3 days prior to loading the cells with 4.4 μM Fluo-3AM (Molecular Probes) for 30 min at 37° C. in RPMI medium containing 20 mM HEPES, 0.1% bovine serum albumin (BSA) and 5 mM probenecid. After washing, cells were dissolved at 2×10^6 cells/ml in HBSS buffer (Invitrogen 14190-094) supplemented with 10 mM HEPES, 2.5 mM probenecid and 0.1% BSA (pH=7.4), and sedimented by 1 min centrifugation (1500 rpm) in black 96-well plates (Costar) (200,000 cells/well). A 100× concentration range of test compounds was prepared in DMSO and further diluted in HBSS buffer. U937 cells were pre-incubated with compound for 20 minutes at room temperature (1% DMSO), before recombinant human C5a (Sigma) was added to the cells (1.5 nM). Changes in intracellular free Ca^2+ concentration were measured using the Fluorescent Imaging Plate Reader (FLIPR, Molecular Devices). Fluorescence was recorded every second from 10 seconds before the addition of C5a until 2 min after the addition. The maximal fluorescence obtained during this time frame was used for further calculations.

CCc1cccc(CC)c1-c1cc(OC)c2c(n1)CCCC2N(C)c1cc(-c2ccccc2)ccc1C (stereo not shown) [Compound 122]
inhibition at 1 µM (C5a receptor [1]): 81% | inhibition at 10 µM (C5a receptor [1]): 84%

COc1cc(-c2c(C)cccc2C)nc2c1C(N(C)c1cc(C)ccc1C(C)C)CCC2 (stereo not shown) [Compound 110]
IC50 (C5a receptor [2]): > 10000 nM | inhibition at 1 µM (C5a receptor [1]): 77% | inhibition at 10 µM (C5a receptor [1]): 82%

CCc1cccc(CC)c1-c1cc(OC)c2c(n1)CCCC2Oc1ccccc1CCO (stereo not shown) [Compound 64]
IC50 (C5a receptor [2]): 2390 nM

CCc1cccc(CC)c1-c1cc(OC)c2c(n1)CCCC2N1CCc2ccccc21 (stereo not shown) [Compound 93]
IC50 (C5a receptor [2]): > 10000 nM | inhibition at 1 µM (C5a receptor [1]): 68% | inhibition at 10 µM (C5a receptor [1]): 80%

CCc1cccc(CC)c1-c1cc(OC)c2c(n1)CCCC2N(C)c1cccc2c(OC)cccc12 (stereo not shown) [Compound 118]
inhibition at 1 µM (C5a receptor [1]): 71% | inhibition at 10 µM (C5a receptor [1]): 77%

CCc1cccc(CC)c1-c1cc(OC)c2c(n1)CCCC2N(C)c1ccc(OC)cc1C (stereo not shown) [Compound 80]
IC50 (C5a receptor [2]): 6190 nM | inhibition at 1 µM (C5a receptor [1]): 80% | inhibition at 10 µM (C5a receptor [1]): 81%

CCc1cccc(CC)c1-c1cc(OC)c2c(n1)CCCC2N(C)CCc1ccccc1 (stereo not shown) [Compound 87]
IC50 (C5a receptor [2]): > 10000 nM | [125I]-C5a Binding % Inhibition 1 μM (C5a receptor [1]): 17% | [125I]-C5a Binding % Inhibition 10 μM (C5a receptor [1]): 51%

CCc1cccc(CC)c1-c1cc(OC)c2c(n1)CCCC2N(CC)c1cccc2ccccc12 (racemic) [Compound 12, (±)-[2-(2,6-Diethyl-phenyl)-4-methoxy-5,6,7,8-tetrahydro-quinolin-5-yl]-ethyl-naphthlen-1-yl-amine]
inhibition at 1 µM (C5a receptor [1]): 94% | inhibition at 10 µM (C5a receptor [1]): 97% | [125I]-C5a Binding % Inhibition 1 μM (C5a receptor [1]): 88% and 98% and 101% and 100% and 81% | [125I]-C5a Binding % Inhibition 10 μM (C5a receptor [1]): 92% and 102, 102, % and 90%

CCc1cccc(CC)c1-c1cc(SC)c2c(n1)CCCC2N(CC)c1cccc2ccccc12 (stereo not shown) [Compound 10]
IC50 (C5a receptor [2]): 82 nM | inhibition at 1 µM (C5a receptor [1]): 92% | inhibition at 10 µM (C5a receptor [1]): 94%

CCc1cccc(CC)c1-c1cc(OC)c2c(n1)CCCC2N(CC)c1cccc2c1CCCC2 (stereo not shown) [Compound 24]
IC50 (C5a receptor [2]): 216 nM | inhibition at 1 µM (C5a receptor [1]): 88% | inhibition at 10 µM (C5a receptor [1]): 91%

CCc1cccc(CC)c1-c1cc(OC)c2c(n1)CCCC2N1CCc2ccc(Cl)cc2C1 (stereo not shown) [Compound 51]
IC50 (C5a receptor [2]): 1410 nM | inhibition at 1 µM (C5a receptor [1]): 83% | inhibition at 10 µM (C5a receptor [1]): 89%

CCN(c1cccc2ccccc12)C1CCCc2nc(-c3ccccc3-c3ccccc3)cc(OC)c21 (stereo not shown) [Compound 107]
inhibition at 1 µM (C5a receptor [1]): 76% | inhibition at 10 µM (C5a receptor [1]): 84%

CCc1cccc(CC)c1-c1cc(OC)c2c(n1)CCCC2N1CCc2ccc(C(F)(F)F)cc2C1 (stereo not shown) [Compound 101]
inhibition at 1 µM (C5a receptor [1]): 75% | inhibition at 10 µM (C5a receptor [1]): 79%

CCN(c1cccc2ccccc12)C1CCCc2nc(-c3ccsc3)cc(OC)c21 (stereo not shown) [Compound 134]
inhibition at 1 µM (C5a receptor [1]): -8% | inhibition at 10 µM (C5a receptor [1]): 40%

CCc1cccc(CC)c1-c1cc(OC(C)C)c2c(n1)CCCC2Nc1cc(OC)ccc1C (stereo not shown) [Compound 18]
IC50 (C5a receptor [2]): 137 nM

CCc1cccc(CC)c1-c1cc(OC)c2c(n1)CCCC2N1CCc2cc(OC)c(OC)cc2C1 (stereo not shown) [Compound 127]
inhibition at 1 µM (C5a receptor [1]): -9% | inhibition at 10 µM (C5a receptor [1]): 42%

CCOC(=O)c1ccccc1OC1CCCc2nc(-c3c(CC)cccc3CC)cc(OC)c21 (stereo not shown) [Compound 150]
IC50 (C5a receptor [2]): > 10000 nM

CCc1cccc(CC)c1-c1cc(OC)c2c(n1)CCCC2Nc1cnccc1CO (stereo not shown) [Compound 71]
IC50 (C5a receptor [2]): 3470 nM

CCc1cccc(CC)c1-c1cc(O)c2c(n1)CCCC2Nc1cc(O)ccc1C (stereo not shown) [Compound 146]
IC50 (C5a receptor [2]): > 10000 nM

CCc1cccc(CC)c1-c1cc(OC2CCCC2)c2c(n1)CCCC2Nc1cc(OC)ccc1C (stereo not shown) [Compound 17]
IC50 (C5a receptor [2]): 134 nM

CCc1cccc(CC)c1-c1cc(OC)c2c(n1)CCCC2Nc1cc(Cl)ccc1CO (stereo not shown) [Compound 3]
IC50 (C5a receptor [2]): 26 nM

CCc1cccc(CC)c1-c1cc(OC)c2c(n1)CCC[C@H]2N(CC)c1cccc2ccccc12 [Compound 4]
inhibition at 1 µM (C5a receptor [1]): 94% | inhibition at 10 µM (C5a receptor [1]): 95% | [125I]-C5a Binding % Inhibition 1 μM (C5a receptor [1]): 99% | [125I]-C5a Binding % Inhibition 10 μM (C5a receptor [1]): 101%

CCc1cccc(CC)c1-c1cc(CC)c2c(n1)CCCC2Nc1cc(OC)ccc1C (racemic) [Compound 25, (±)-[2-(2,6-Diethyl-phenyl)-4-ethyl-5,6,7,8-tetrahydro-quinolin-5-yl]-(5-methoxy-2-methyl-phenyl)-amine]
IC50 (C5a receptor [2]): 244 nM

CCc1cccc(CC)c1-c1cc(OC)c2c(n1)CCCC2Nc1cccc(CO)c1 (stereo not shown) [Compound 142]
IC50 (C5a receptor [2]): > 10000 nM

CCc1cccc(CC)c1-c1cc(OC(C)C)c2c(n1)CCCC2Nc1ccccc1CCO (stereo not shown) [Compound 1]
IC50 (C5a receptor [2]): 7.3 nM

CCc1cccc(CC)c1-c1cc(OC)c2c(n1)CCCC2Nc1cccc2ccccc12 (stereo not shown) [Compound 103]
[125I]-C5a Binding % Inhibition 1 μM (C5a receptor [1]): 48% | [125I]-C5a Binding % Inhibition 10 μM (C5a receptor [1]): 61%

CCc1cccc(CC)c1-c1cc(OC)c2c(n1)CCCC2Nc1cccc2ccccc12 (stereo not shown) [Compound 132]
[125I]-C5a Binding % Inhibition 1 μM (C5a receptor [1]): 12% | [125I]-C5a Binding % Inhibition 10 μM (C5a receptor [1]): 34%

CCc1cccc(CC)c1-c1cc(OCCN(C)C)c2c(n1)CCCC2Nc1cc(OC)ccc1C (stereo not shown) [Compound 62]
IC50 (C5a receptor [2]): 2320 nM

CCN(c1cccc2ccccc12)C1CCCc2nc(-c3cccnc3)cc(OC)c21 (stereo not shown) [Compound 136]
inhibition at 1 µM (C5a receptor [1]): 2% | inhibition at 10 µM (C5a receptor [1]): 35%

CCCC1(Nc2cc(OC)ccc2C)CCCc2nc(-c3c(CC)cccc3CC)cc(OC)c21 (racemic) [Compound 70, (±)-[2-(2,6-Diethyl-phenyl)-4-methoxy-5-propyl-5,6,7,8-tetrahydro-quinolin-5-yl]-(5-methoxy-2-methyl-phenyl)-amine]
IC50 (C5a receptor [2]): 3470 nM

CCc1cccc(CC)c1-c1cc(OC)c2c(n1)CCCC2N1CCc2ccc(OC)cc2C1 (stereo not shown) [Compound 100]
inhibition at 1 µM (C5a receptor [1]): 70% | inhibition at 10 µM (C5a receptor [1]): 82%

CCc1cccc(CC)c1-c1cc(OC)c2c(n1)CCCC2Nc1ccccc1CN (stereo not shown) [Compound 75]
IC50 (C5a receptor [2]): 4960 nM

CCc1cccc(CC)c1-c1cc(OC)c2c(n1)CCCC2NCc1ccccc1N (stereo not shown) [Compound 145]
IC50 (C5a receptor [2]): > 10000 nM

CCc1cccc(CC)c1-c1cc(OC)c2c(n1)CCCC2Nc1ccccc1C (stereo not shown) [Compound 46]
inhibition at 1 µM (C5a receptor [1]): 81% | inhibition at 10 µM (C5a receptor [1]): 87%

CCc1cccc(CC)c1-c1cc(OC)c2c(n1)CCCC2Oc1ccccc1CO (stereo not shown) [Compound 139]
IC50 (C5a receptor [2]): > 10000 nM

CCc1cccc(CC)c1-c1cc(OC)c2c(n1)CCCC2(C)Nc1cc(OC)ccc1C (stereo not shown) [Compound 140]
IC50 (C5a receptor [2]): > 10000 nM

CCN(c1cccc2ccccc12)C1CCCc2nc(-c3c(C)noc3C)cc(OC)c21 (stereo not shown) [Compound 151]
IC50 (C5a receptor [2]): > 10000 nM

CCc1cccc(CC)c1-c1cc(CC)c2c(n1)CCCC2N(CC)c1cccc2ccccc12 (stereo not shown) [Compound 23]
IC50 (C5a receptor [2]): 191 nM

CCc1cccc(CC)c1-c1cc(OC)c2c(n1)CCCC2Nc1cc(C(F)(F)F)ccc1CO (stereo not shown) [Compound 2]
IC50 (C5a receptor [2]): 22 nM

CCc1cccc(CC)c1-c1cc(OC)c2c(n1)CCCC2Nc1ccccc1C(=O)O (stereo not shown) [Compound 33]
IC50 (C5a receptor [2]): 414 nM

CCc1cccc(CC)c1-c1cc(OC)c2c(n1)CCCC2Nc1ccc(F)cc1CO (stereo not shown) [Compound 7]
IC50 (C5a receptor [2]): 53 nM

CCc1cccc(CC)c1-c1cc(OC2CCCC2)c2c(n1)CCCC2N(CC)c1cccc2ccccc12 (stereo not shown) [Compound 6]
IC50 (C5a receptor [2]): 37 nM

CCN(c1cccc2ccccc12)C1CCCc2nc(-c3c(Cl)cccc3OC)cc(OC)c21 (stereo not shown) [Compound 13]
IC50 (C5a receptor [2]): 109 nM

COc1cc(-c2c(C)cccc2C)nc2c1C(N(C)c1c(C)cccc1C)CCC2 (stereo not shown) [Compound 114]
inhibition at 1 µM (C5a receptor [1]): 63% | inhibition at 10 µM (C5a receptor [1]): 73%

CCc1cccc(CC)c1-c1cc(OC)c2c(n1)CCCC2Nc1ccc(CO)cc1C (stereo not shown) [Compound 141]
IC50 (C5a receptor [2]): > 10000 nM

CCc1cccc(CC)c1-c1cc(OC)c2c(n1)CCCC2Oc1cc(OC)ccc1C=O (stereo not shown) [Compound 143]
IC50 (C5a receptor [2]): > 10000 nM

B1: C5a: anaphylatoxin C5a, 74-amino acid N-terminal fragment of complement factor C5; recombinant human C5a (Sigma), radioligand [125I]-C5a (protein, UniProt P01031 678-751, looked up)
C5a anaphylatoxin: TLQKKIEEIAAKYKHSVVKKCCYDGACVNNDETCEQRAARISLGPRCIKAFTECCVVASQLRANISHKDMQLGR
modifications: C5a anaphylatoxin also 125I-labelled radioligand
Kd (C5a receptor [1]; read-out: C5a Kd, Kd of C5a used for the Ki calculation): 0.324 nM
